Values belong to the compound of their own block, whether it stands above or below them.
Key:
[1] = Pharmacokinetic study, 100 mg resveratrol, oral transmucosal resveratrol/solubilizer formulation (test) versus controls; type: in vivo, human; conditions: for Cav: plasma
Protocol: Any adverse effects are recorded. […] These adjustments are made using the formulas […])).

[2] = trans/cis isomerisation of resveratrol in water or 3 M ribose, with or without 30 minutes U.V. light (Table 3, FIGS. 1-4); type: physicochemical; conditions: for cis isomer peak area, Mass spectroscopy / cis isomer peak area, PDA (trans-316 nm, cis-284 nm) / cis isomer peak area, Tandem mass spectroscopy / trans isomer peak area, Mass spectroscopy / trans isomer peak area, PDA (trans-316 nm, cis-284 nm) / trans isomer peak area, Tandem mass spectroscopy: UV exposed 30 minutes
Text: PDA-284 nm panel: NL: 4.31E5; nm=283.5-284.5; PDA Avalon. MS Panel: NL: 3.90E6; m/z=226.60-227.60; F: -c APCI corona; sid=10.00; Full ms [100.00-1000.00] MS ICIS. Tandem MS panel: NL: 7.71E5; m/z=184.50-185.50; F: -c APCI corona; sid=10.00 Full ms2 227.00@cid45.00 [60.00-250.00] MS ICIS.

[3] = Dissolution of resveratrol in sugar or sugar alcohol solutions (observation); type: physicochemical
Protocol: A ribose/water solution (18 g/2 g) was heated.
In another experiment, various sucrose/water mixtures were heated to boiling point. Reservatrol was added to each sucrose/water solution. […] On cooling, resveratrol/sucrose/water mixtures formed crystalline solids composed of small crystals; in contrast, the sucrose/water solution formed a crystalline solid composed of large crystals.
In another experiment, water was added to the solid resveratrol/sucrose/water mixtures.
An aqueous solution of dextrose was prepared and heated to boiling. The resveratrol was added to the warm syrup and allowed to cool further. While still liquid, the syrup retained a capsinoid flavor. On cooling further, a white powdery mixture of crystals was formed. No capsinoid-like flavor was detected when the solid mixture was tasted.
Resveratrol was added to warm solutions of xylitol or erythritol. […] On cooling the xylitol or erythritol solution formed a crystalline solid that appeared to exclude the resveratrol. No capsaicirioid-like flavor was detected when each reservatrol/xylitol and reservatrol/erythritol solid mixture was tasted.
Water was added to the each reservatrol/xylitol and reservatrol/erythritol mixture.

[4] = Solubility of resveratrol in 3M ribose, U.V. HPLC and MS peak areas (Table 2); type: physicochemical
Text: Table 2 and 3 summarize the results.

[5] = Resveratrol solubility in ribose, U.V. HPLC and mass spectrometry peak areas (Table 1); type: physicochemical
Protocol: The peak areas of the LC traces using U.V. and MS spectral detection were determined. […]

[6] = 1.6 mg resveratrol in 1 ml 3M ribose
[7] = 1.6 mg resveratrol in 1 ml water
[8] = 0.4 mg/ml standard in MeOH/water
[9] = 1.3 mg resveratrol in 1 ml 1M ribose
[10] = 1.3 mg resveratrol in 1 ml water

Cav ([1]; Control(s): 100 mg resveratrol): 34 ng/mL | Cav ([1]; Test: 100 mg resveratrol, oral transmucosal resveratrol/solubilizer formulation): 23 ng/mL
SMILES: O=S(=O)(O)Oc1cc(O)cc(/C=C/c2ccc(O)cc2)c1 [3-sulfate, trans-resveratrol-3-O-sulfate]

cis isomer peak area, Mass spectroscopy ([2]; 3M ribose): 67794774 | cis isomer peak area, PDA (trans-316 nm, cis-284 nm) ([2]; 3M ribose): 3348277 | cis isomer peak area, Tandem mass spectroscopy ([2]; 3M ribose): 12957854 | trans isomer peak area, Mass spectroscopy ([2]; 3M ribose): 30056046 | trans isomer peak area, PDA (trans-316 nm, cis-284 nm) ([2]; 3M ribose): 9667985 | trans isomer peak area, Tandem mass spectroscopy ([2]; 3M ribose): 4678183 | isomers detected, PDA-316 nm panel ([2]; FIG. 1, 1.6 mg resveratrol in 1 ml water, no U.V. exposure): cis isomer is not detected | isomers detected, PDA-316 nm panel ([2]; FIG. 2, 1.6 mg resveratrol in 1 ml 3 M ribose, no U.V. exposure): cis isomer is not detected | cis isomer peak area, Mass spectroscopy ([2]; Water): 42202693 | cis isomer peak area, PDA (trans-316 nm, cis-284 nm) ([2]; Water): 2260306 | cis isomer peak area, Tandem mass spectroscopy ([2]; Water): 8357052 | trans isomer peak area, Mass spectroscopy ([2]; Water): 7702267 | trans isomer peak area, PDA (trans-316 nm, cis-284 nm) ([2]; Water): 3293034 | trans isomer peak area, Tandem mass spectroscopy ([2]; Water): 1489337 | solubility ([3]; aqueous dextrose solution, heated to boiling and cooled): not well soluble | solubility ([3]; in ribose and in fructose/dextrose): soluble | solubility in the presence of ribose ([3]; ribose/water solution (18 g/2 g), 100 mg resveratrol to 1000 mg solution, inferred from sensation in the mouth): increased | dissolution ([3]; sucrose/water solution (1:1 v/v)): failed to dissolve | dissolution ([3]; various sucrose/water mixtures heated to about 90° C., then cooled): failed to dissolve | dissolution ([3]; warm solutions of xylitol or erythritol): observed not to dissolve | behaviour on adding water ([3]; water added to reservatrol/xylitol and reservatrol/erythritol mixtures): precipitated out of solution | behaviour on adding water ([3]; water added to the solid resveratrol/sucrose/water mixtures): precipitated out of solution | peak area, Mass spectroscopy [4, 6]: 69226333 | peak area, PDA (trans-316 nm, cis-284 nm) [4, 6]: 17477801 | peak area, Tandem mass spectroscopy [4, 6]: 11603388 | peak area, Mass spectroscopy [4, 7]: 35925663 | peak area, PDA (trans-316 nm, cis-284 nm) [4, 7]: 10448839 | peak area, Tandem mass spectroscopy [4, 7]: 6058729 | % increase of peak area, Mass spectroscopy ([4]; 3M ribose versus water): 92.7% | % increase of peak area, PDA (trans-316 nm, cis-284 nm) ([4]; 3M ribose versus water): 67.3% | % increase of peak area, Tandem mass spectroscopy ([4]; 3M ribose versus water): 91.5% | Resveratrol MS peak area [5, 8]: 361620189 | Resveratrol MS/MS peak area [5, 8]: 22825783 | Resveratrol UV peak area [5, 8]: 32589198 | Resveratrol MS peak area [5, 9]: 34006422 | Resveratrol MS/MS peak area [5, 9]: 2177343 | Resveratrol UV peak area [5, 9]: 6879044 | Resveratrol MS peak area [5, 10]: 17991728 | Resveratrol MS/MS peak area [5, 10]: 1055482 | Resveratrol UV peak area [5, 10]: 3757436 | Resveratrol MS peak area ([5]; 1:1 dilution of ribose sample): 59987321 | Resveratrol MS/MS peak area ([5]; 1:1 dilution of ribose sample): 4277049 | Resveratrol UV peak area ([5]; 1:1 dilution of ribose sample): 10156011 | Resveratrol MS peak area ([5]; 1:1 dilution of water sample): 36350491 | Resveratrol MS/MS peak area ([5]; 1:1 dilution of water sample): 2235878 | Resveratrol UV peak area ([5]; 1:1 dilution of water sample): 7414378 | percentage increase in the peak area with ribose ([5]; ribose (undiluted) sample versus water sample): 83.1% | Serum Cmax levels of resveratrol, test versus control subjects ([1]; 100 mg resveratrol): higher in test subjects
SMILES: Oc1ccc(/C=C/c2cc(O)cc(O)c2)cc1 [Resveratrol, 3,5,4′-trihydroxy-trans-stilbene]
isomers detected, PDA-316 nm panel ([2]; FIG. 3, 1.6 mg resveratrol in 1 ml water exposed to U.V. light for 30 minutes): trans isomer and cis isomer peaks detected | isomers detected, PDA-316 nm panel ([2]; FIG. 4, 1.6 mg resveratrol in 1 ml 3 M ribose exposed to U.V. light for 30 minutes): trans isomer and cis isomer peaks detected | peak plasma level and bioavailability, test versus controls ([1]; resveratrol/solubilizer formulation by oral transmucosal route versus oral transmucosal resveratrol/sucrose or oral resveratrol/solubilizer): greater peak plasma level and bioavailability

From patent US11077070B2 (Wilmore Labs LLC, priority 2009, dated 2021)
